Assays:
[1] = target: Ephrin type-A receptor 7 (Homo sapiens) (UniProt Q15375); assay: Inhibition of human recombinant EphA7 at 500 nM related to control ULK1
[2] = target: Serine/threonine-protein kinase 4 (Homo sapiens) (UniProt Q13043); assay: Inhibition of human recombinant MST1 at 500 nM in presence of ATP by radiometric assay relative to control
[3] = target: T1, Serine/threonine-protein kinase Sgk2 (Homo sapiens) (UniProt Q9HBY8); assay: Inhibition of human recombinant SGK2 at 500 nM in presence of ATP by radiometric assay relative to control
T1 sequence (whole entry): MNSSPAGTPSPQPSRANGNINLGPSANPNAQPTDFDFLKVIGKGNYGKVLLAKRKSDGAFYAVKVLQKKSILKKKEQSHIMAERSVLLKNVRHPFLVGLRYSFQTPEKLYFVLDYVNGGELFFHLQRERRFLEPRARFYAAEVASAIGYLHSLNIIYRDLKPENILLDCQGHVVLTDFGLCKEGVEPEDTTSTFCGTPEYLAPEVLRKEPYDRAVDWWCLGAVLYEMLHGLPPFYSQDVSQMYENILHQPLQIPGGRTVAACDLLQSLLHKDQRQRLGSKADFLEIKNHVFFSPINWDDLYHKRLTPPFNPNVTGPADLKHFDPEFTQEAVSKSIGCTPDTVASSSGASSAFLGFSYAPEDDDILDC

[4] = target: Calcium/calmodulin-dependent protein kinase type II subunit beta (Homo sapiens) (UniProt Q13554); assay: Inhibition of human recombinant CaMK2b at 500 nM in presence of ATP by radiometric assay relative to control
[5] = target: Insulin-like growth factor 1 receptor (Homo sapiens) (UniProt P08069); assay: Inhibition of human recombinant IGF1R at 500 nM related to control ULK1
Insulin-like growth factor 1 receptor (Homo sapiens), sequence (P08069 31-736 limits assumed): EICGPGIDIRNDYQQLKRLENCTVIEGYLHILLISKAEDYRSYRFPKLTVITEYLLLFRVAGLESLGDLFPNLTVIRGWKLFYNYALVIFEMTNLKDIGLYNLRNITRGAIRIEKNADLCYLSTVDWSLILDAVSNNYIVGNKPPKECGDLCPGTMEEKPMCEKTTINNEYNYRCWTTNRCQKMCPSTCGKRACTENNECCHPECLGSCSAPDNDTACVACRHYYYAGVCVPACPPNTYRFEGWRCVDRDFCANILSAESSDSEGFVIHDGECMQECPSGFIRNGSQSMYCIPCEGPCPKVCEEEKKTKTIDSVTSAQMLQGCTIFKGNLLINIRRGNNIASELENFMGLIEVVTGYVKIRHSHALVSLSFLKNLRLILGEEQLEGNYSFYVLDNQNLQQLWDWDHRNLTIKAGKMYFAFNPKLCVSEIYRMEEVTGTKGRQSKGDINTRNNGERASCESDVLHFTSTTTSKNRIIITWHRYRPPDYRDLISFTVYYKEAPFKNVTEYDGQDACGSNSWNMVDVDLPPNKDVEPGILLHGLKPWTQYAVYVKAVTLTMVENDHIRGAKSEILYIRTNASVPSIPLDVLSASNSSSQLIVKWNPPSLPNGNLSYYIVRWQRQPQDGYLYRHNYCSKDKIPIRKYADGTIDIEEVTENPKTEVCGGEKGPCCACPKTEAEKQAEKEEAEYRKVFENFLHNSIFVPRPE
Insulin-like growth factor 1 receptor (Homo sapiens), sequence (P08069 741-1367 limits assumed): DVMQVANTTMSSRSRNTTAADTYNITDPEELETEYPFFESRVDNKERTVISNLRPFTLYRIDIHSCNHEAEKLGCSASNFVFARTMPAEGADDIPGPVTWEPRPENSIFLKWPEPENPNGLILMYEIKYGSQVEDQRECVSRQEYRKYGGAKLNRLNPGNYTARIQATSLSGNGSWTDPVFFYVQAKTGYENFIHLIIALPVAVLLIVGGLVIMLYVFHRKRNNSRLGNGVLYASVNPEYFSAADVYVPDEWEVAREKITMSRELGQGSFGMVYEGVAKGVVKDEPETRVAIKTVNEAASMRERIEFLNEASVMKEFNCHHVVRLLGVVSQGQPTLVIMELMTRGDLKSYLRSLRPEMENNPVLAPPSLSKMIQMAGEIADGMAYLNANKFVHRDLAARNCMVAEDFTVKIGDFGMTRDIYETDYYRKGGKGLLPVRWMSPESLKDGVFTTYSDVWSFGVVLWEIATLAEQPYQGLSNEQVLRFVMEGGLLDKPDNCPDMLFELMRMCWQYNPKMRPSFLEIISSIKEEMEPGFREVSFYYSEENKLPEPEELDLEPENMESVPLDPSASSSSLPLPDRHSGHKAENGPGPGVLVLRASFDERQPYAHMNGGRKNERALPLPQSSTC

[6] = target: Serine/threonine-protein kinase 38-like (Homo sapiens) (UniProt Q9Y2H1); assay: Inhibition of human recombinant NDR2 at 500 nM in presence of ATP by radiometric assay relative to control
Serine/threonine-protein kinase 38-like (Homo sapiens), sequence (Q9Y2H1 2-464 limits assumed): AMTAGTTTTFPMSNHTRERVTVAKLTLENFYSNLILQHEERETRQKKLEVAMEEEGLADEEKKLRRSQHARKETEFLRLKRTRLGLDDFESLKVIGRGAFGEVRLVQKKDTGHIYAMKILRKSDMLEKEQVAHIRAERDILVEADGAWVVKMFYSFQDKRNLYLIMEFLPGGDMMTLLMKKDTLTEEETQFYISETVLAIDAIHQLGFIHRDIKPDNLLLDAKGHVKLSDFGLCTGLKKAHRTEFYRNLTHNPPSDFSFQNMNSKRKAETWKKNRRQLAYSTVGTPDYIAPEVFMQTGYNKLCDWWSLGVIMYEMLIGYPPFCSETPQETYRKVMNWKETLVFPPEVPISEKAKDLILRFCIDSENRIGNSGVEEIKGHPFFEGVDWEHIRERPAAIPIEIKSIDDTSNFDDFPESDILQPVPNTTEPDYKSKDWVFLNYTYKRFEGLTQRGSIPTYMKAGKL

[7] = target: Mitogen-activated protein kinase 9 (Homo sapiens) (UniProt P45984); assay: Inhibition of human recombinant JNK2 at 500 nM in presence of ATP by radiometric assay relative to control
[8] = target: Serine/threonine-protein kinase PAK 5 (Homo sapiens) (UniProt Q9P286); assay: Inhibition of human recombinant PAK5 at 15 nM related to control ULK1
[9] = target: T2, Calcium/calmodulin-dependent protein kinase type IV (Homo sapiens) (UniProt Q16566); assay: Inhibition of human recombinant CaMK4 at 15 nM related to control ULK1
T2 sequence (whole entry): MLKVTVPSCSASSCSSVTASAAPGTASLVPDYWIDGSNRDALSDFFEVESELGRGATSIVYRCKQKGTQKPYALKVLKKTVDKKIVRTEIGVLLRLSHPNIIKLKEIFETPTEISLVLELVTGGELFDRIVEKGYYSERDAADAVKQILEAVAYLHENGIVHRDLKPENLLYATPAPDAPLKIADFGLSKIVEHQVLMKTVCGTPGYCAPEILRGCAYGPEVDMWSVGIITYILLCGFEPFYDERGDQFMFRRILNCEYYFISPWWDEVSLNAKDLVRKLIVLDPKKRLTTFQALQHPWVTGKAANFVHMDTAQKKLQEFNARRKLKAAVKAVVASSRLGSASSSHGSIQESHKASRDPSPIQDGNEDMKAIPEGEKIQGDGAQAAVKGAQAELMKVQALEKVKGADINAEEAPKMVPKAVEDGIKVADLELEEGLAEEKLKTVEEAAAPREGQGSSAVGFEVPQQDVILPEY

[10] = target: DNA-PK/Ku70/Ku85 (Homo sapiens) (UniProt P78527+P12956+P13010); assay: Inhibition of human recombinant DNAPK at 15 nM related to control ULK1; format: protein-complex assay
[11] = target: Tyrosine-protein kinase JAK1 (Homo sapiens) (UniProt P23458); assay: Inhibition of human recombinant JAK1 at 15 nM in presence of ATP by radiometric assay relative to control
Tyrosine-protein kinase JAK1 (Homo sapiens), sequence (P23458 whole entry): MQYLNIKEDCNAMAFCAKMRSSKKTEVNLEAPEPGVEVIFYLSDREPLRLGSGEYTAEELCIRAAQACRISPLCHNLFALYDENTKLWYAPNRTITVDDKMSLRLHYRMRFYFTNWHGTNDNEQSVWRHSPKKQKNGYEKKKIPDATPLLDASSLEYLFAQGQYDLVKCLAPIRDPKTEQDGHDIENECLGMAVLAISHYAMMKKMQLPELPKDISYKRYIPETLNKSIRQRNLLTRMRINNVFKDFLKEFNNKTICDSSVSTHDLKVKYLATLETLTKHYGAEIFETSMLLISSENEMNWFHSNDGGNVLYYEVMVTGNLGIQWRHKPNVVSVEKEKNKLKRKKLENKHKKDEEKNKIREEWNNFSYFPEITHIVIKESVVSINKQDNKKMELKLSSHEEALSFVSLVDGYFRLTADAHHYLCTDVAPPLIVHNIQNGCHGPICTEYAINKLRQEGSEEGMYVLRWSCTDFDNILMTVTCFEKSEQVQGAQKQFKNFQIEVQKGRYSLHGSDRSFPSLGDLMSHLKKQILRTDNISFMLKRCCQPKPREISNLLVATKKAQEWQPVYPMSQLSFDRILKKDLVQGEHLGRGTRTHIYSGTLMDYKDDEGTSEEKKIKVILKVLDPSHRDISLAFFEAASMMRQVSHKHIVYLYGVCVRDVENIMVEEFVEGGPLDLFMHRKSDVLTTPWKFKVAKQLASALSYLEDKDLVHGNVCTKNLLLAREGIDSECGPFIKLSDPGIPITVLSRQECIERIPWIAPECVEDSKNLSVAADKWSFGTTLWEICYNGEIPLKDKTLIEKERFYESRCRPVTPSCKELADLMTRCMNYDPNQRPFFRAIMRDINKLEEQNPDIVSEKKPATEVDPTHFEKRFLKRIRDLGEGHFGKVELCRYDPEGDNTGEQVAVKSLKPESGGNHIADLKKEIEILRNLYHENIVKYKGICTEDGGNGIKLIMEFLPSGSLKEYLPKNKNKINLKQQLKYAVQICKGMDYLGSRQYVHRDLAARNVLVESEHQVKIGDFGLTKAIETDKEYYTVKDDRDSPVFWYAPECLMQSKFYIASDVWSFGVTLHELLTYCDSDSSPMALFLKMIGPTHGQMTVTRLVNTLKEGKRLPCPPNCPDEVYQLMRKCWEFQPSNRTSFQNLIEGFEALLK

[12] = target: Mitogen-activated protein kinase 11 (Homo sapiens) (UniProt Q15759); assay: Inhibition of human recombinant p38beta at 40 nM in presence of ATP by radiometric assay relative to control
[13] = target: Cyclin-dependent kinase 6 (Homo sapiens) (UniProt Q00534); assay: Inhibition of human recombinant CDK6 at 40 nM related to control ULK1
Cyclin-dependent kinase 6 (Homo sapiens), sequence (Q00534 whole entry): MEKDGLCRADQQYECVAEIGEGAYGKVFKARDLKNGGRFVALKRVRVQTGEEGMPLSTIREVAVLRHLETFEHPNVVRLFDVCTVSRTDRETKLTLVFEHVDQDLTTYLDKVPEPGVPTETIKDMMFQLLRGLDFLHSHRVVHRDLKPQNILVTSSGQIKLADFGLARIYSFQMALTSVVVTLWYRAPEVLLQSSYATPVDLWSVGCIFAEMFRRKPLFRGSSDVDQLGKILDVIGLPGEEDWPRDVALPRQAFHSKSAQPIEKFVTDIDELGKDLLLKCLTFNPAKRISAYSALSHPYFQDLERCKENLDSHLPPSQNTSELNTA

[14] = target: T3, Serine/threonine-protein kinase TAO1 (Homo sapiens) (UniProt Q7L7X3); assay: Inhibition of human recombinant TAO1 at 40 nM in presence of ATP by radiometric assay relative to control
T3 sequence (whole entry): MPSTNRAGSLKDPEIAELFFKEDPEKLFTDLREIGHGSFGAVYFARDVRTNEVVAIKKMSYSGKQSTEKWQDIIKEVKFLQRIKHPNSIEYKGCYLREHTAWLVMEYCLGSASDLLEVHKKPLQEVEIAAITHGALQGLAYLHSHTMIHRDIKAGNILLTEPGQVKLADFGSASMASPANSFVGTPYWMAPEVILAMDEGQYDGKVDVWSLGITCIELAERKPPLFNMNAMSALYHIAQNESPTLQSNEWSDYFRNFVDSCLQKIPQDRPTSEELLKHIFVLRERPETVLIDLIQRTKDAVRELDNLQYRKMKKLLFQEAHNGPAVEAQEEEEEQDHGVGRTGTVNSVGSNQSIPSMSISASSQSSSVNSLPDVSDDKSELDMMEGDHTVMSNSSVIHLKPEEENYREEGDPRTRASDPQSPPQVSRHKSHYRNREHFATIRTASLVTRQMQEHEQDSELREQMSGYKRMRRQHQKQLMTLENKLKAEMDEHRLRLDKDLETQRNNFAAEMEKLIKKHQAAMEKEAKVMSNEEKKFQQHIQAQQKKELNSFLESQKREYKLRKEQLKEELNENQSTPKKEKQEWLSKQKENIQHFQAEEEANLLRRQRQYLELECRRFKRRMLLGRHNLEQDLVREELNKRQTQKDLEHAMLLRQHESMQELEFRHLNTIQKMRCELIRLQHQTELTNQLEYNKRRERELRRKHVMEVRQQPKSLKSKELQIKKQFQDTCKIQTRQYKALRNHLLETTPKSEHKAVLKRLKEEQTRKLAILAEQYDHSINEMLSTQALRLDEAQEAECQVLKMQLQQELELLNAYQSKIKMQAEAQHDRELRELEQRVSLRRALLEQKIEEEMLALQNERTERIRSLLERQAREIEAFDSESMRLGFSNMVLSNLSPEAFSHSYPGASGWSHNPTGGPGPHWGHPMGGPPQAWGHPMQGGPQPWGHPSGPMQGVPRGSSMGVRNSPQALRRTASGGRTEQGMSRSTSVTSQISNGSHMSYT

Ephrin type-A receptor 7 (Homo sapiens), sequence (Q15375 28-998 limits assumed): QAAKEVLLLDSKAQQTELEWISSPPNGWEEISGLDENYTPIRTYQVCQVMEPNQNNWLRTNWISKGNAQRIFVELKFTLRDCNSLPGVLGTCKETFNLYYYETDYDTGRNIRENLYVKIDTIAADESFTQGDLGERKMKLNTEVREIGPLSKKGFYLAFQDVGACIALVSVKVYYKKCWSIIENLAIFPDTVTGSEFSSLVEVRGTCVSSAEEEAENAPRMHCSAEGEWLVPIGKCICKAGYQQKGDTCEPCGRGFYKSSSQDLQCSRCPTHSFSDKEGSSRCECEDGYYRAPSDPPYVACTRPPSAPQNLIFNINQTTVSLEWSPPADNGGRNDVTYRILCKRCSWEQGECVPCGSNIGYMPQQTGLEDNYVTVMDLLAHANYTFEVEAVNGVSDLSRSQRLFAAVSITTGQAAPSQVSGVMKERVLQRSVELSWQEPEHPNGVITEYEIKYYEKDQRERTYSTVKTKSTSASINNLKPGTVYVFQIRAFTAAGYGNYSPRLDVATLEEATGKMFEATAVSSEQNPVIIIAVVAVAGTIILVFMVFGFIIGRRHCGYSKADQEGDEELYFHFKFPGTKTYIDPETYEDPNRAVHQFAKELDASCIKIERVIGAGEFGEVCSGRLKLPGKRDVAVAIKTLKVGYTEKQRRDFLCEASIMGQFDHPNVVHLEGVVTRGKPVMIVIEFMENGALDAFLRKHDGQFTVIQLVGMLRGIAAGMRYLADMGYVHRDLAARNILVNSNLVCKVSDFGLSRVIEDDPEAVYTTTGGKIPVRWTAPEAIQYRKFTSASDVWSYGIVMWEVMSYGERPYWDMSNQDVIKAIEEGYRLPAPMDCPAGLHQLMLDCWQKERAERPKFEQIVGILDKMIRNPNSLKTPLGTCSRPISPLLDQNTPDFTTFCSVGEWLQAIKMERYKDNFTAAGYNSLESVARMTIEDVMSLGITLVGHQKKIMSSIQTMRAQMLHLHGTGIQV
Serine/threonine-protein kinase 4 (Homo sapiens), sequence (Q13043 whole entry, looked up): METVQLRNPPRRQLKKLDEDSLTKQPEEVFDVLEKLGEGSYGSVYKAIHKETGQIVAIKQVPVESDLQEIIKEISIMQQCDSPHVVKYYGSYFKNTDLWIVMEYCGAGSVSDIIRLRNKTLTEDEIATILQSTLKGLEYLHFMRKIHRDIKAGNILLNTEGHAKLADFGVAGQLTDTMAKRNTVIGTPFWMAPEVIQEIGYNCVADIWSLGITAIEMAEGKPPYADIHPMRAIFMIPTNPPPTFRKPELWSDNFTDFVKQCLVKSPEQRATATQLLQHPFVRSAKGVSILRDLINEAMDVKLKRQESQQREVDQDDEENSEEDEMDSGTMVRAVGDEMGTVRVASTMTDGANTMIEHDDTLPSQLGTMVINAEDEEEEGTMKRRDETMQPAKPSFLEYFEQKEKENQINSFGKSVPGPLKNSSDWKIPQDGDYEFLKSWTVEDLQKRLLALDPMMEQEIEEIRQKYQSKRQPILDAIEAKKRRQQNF

**Q.** How did the fold change (FC) [1] turn out when `CNC(=O)c1ccccc1Oc1nc(Nc2cc(OC)c(OC)c(OC)c2)ncc1Br` was run?
**A.** Its fold change (FC) is 0.

**Q.** What about the inhibition [2] of the same compound?
**A.** The inhibition was 0%.

**Q.** What about the inhibition [3] of the same compound?
**A.** The inhibition was 17%.

**Q.** And the inhibition [4]?
**A.** Its inhibition is 0%.

**Q.** And the fold change (FC) [5]?
**A.** The fold change (FC) was 0.04.

**Q.** What about the inhibition [6] of the same compound?
**A.** The inhibition was 15%.

**Q.** What about the inhibition [7] of the same compound?
**A.** Its inhibition is 0%.

**Q.** `CC(C)[C@H](NC(=O)c1cc(-c2cnn3cc(-c4ccc(OCCN5CCCCC5)cc4)cnc23)cs1)C(F)(F)F` was tested. Which fold change (FC) [8] did it give?
**A.** The fold change (FC) was 0.

**Q.** What about the fold change (FC) [9] of the same compound?
**A.** Its fold change (FC) is 0.

**Q.** What about the fold change (FC) [10] of the same compound?
**A.** The fold change (FC) was 0.

**Q.** And the inhibition [11]?
**A.** Its inhibition is 0%.

**Q.** With `O=C(N[C@@H](C1CC1)C(F)(F)F)c1cc(-c2cnn3cc(-c4ccc(F)cc4)cnc23)cs1` as the compound, how does the inhibition [12] read?
**A.** The inhibition was 10%.

**Q.** And the fold change (FC) [13]?
**A.** The fold change (FC) was 0.04.

**Q.** And the inhibition [14]?
**A.** Its inhibition is 0%.
